Data: article PMC4301629 (PLoS ONE, 2015)

How the values were obtained:
Format in all cases: cell-based
α1A-AR [1] = target: T1, α1A-AR (Homo sapiens, UniProt P35348); assay: IP accumulation in α1A-AR_CHO stable cells; set-up: expressed in transfected cells; settings: Iso up to 1 mM
T1 sequence (P35348 1-466): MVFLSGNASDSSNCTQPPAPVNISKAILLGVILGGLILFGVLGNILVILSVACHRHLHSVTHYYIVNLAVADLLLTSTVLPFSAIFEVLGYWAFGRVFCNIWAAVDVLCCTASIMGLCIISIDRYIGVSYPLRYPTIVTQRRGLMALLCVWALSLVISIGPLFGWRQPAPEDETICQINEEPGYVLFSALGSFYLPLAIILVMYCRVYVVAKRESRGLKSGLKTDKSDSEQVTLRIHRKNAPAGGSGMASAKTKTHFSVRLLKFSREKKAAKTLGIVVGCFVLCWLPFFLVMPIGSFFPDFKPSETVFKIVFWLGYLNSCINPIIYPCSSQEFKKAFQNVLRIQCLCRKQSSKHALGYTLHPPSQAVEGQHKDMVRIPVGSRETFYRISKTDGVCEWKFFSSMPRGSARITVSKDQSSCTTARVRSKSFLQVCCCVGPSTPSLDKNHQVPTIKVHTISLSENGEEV
Procedure: (§1) After 10–20 minutes, 10 μL of agonist was added followed by incubation for 5 to 30 minutes. Stimulation was stopped by addition of lysis buffer. Second messenger levels were determined using a homogeneous immunoassay method with time-resolved FRET detection (IP-One HTRF, Cisbio International) according to protocols provided by the supplier. Sample fluorescence was measured with a Nanoscan plate reader (IOM, Berlin). Each data point represents the average of quadruplicate determinations and each experiment was performed at least two times independently.
IP1, IP2, and IP3 levels were determined via LC-MS. Plots are representative of three independent experiments with each data point being the average of triplicates.

α1A-AR [2] = target: T1, α1A-AR; assay: IP accumulation (IP-One HTRF) in α1A-AR transduced HEK-293/EBNA cells; set-up: expressed in transfected cells; host or cells: HEK-293/EBNA (baculovirus transduction, NaBu induction); settings: α1A-AR transduced HEK-293/EBNA; Iso up to 10 mM
Procedure: Prior to experiments, cells were transduced with baculovirus strains designed for transient expression of α1A-AR or aldehyde oxidase (negative control). This was performed by incubating cells with virus (MOI 100–150) for 3 to 4 h, followed by exchange into fresh serum free growth medium supplemented with 4 mM sodium butyrate (NaBu). Cells were grown for another 14 to 18 h and then examined for agonist-evoked responses in transient Ca^2+ release, IP accumulation or pERK activation assays. The surface receptor expression density was determined by flow cytometry via immunofluorescence labeling of an N-terminal HA epitope tag on the receptor and radioligand binding in partially purified membranes.
as §1

α1A-AR [3] = target: T1, α1A-AR; assay: LC-MS detection of IP1, IP2 and IP3 in α1A-AR transduced HEK-293/EBNA cells; set-up: expressed in transfected cells; host or cells: HEK-293/EBNA (baculovirus transduction, NaBu induction); settings: Iso up to 10 mM
Procedure: Virally transduced HEK-293/EBNA cells were resuspended in growth medium and seeded in poly-D-lysine coated 96-well black plates at a density of 100,000 cells/0.1 mL per well, Cells were allowed to attach for 2 hours at 37°C in a humidified atmosphere of 95% air and 5% CO2. After that, the medium was replaced with agonist solution in assay buffer (20 mM HEPES, 10 mM glucose, 1.8 mM CaCl2, 0.5 mM MgSO4, in HBSS 1X buffer, 50 mM LiCl) and cells were incubated at 37°C for 30 min. Stimulation was stopped by exchange of assay buffer with lysis buffer (100 μL 0.1N HCl/MeOH), and lysis proceeded for 30 min at 4°C. Cellular levels of inositol phosphates were determined using a Thermo LC-MS detection system following a published protocol. Chromatography was performed employing a BioBasic column AX (50 × 2.1 mm, Thermo). The mobile phase consisted of solvent A: 10 mM ammonium acetate, pH 6 in 30/70 acetonitrile/water, and solvent B: 1 mM ammonium acetate, pH 11 in 30/70 acetonitrile/water. A gradient solvent system was used starting with 0% solvent B, and analytes were eluted by increasing solvent B to 100% over 3 min. Each data point represents the average of triplicate determinations and each experiment was performed at least three times independently.

α1A-AR [4] = target: T1, α1A-AR; assay: Translocation of GFP-tagged β-arrestin-1/2 in HEK293 cells expressing FLAG-α1A-AR (confocal microscopy); set-up: expressed in transfected cells; host or cells: HEK-293/EBNA (baculovirus transduction, NaBu induction); settings: HEK293, 1 μM A-61603 or 1 mM Iso
Procedure: HEK293 cells were transiently co-transfected with FLAG-tagged α1A – AR and one of the following GFP-tagged proteins: Rab5 (Rab5 Q79L) variant, Rab11 (Rab11 S25N) variant, β-arrestin-1 or β-arrestin-2. Rab5 and Rab11 were kindly provided by Dr. Marino Zerial (Max Planck Institute of Molecular Cell Biology and Genetics, Dresden, Germany). […] After treatment, cells were fixed with freshly prepared 3.7% paraformaldehyde in PBS for 15 min at room temperature. Subsequently, cells were permeabilized with 0.1% Triton X-100 (Sigma-Aldrich) in PBS for 5 min, followed by nonspecific binding site blocking with 3% normal serum (Santa Cruz Biotechnology) in PBS for 1 h. Incubation with Alexa Fluor-568 conjugated anti-FLAG antibodies in blocking solution was done as directed by the manufacturer. Confocal microscopy was performed using a Zeiss LSM 510 META laser scanning microscope (Carl Zeiss, Inc., Thornwood, NY) equipped with a 60X objective, using the following laser wavelengths: excitation at 488 nm and emission at 505–530 nm; excitation at 543 nm and emission at 560–615 nm.
HEK293 cells were co-transfected with FLAG-tagged α1A – AR and GFP- tagged β-arrestin-1 (left panels) or β-arrestin-2 (right panels). […] Cells were then fixed, permeabilized, stained with Alexa Fluor-568 conjugated anti-FLAG antibodies, and analyzed employing confocal microscopy.

CC(C)NCC(O)c1ccc(O)c(O)c1 (stereo not shown) [Iso, isoproterenol]
IP accumulation (α1A-AR [1]): no IP accumulation could be detected
IP accumulation (α1A-AR [2]): no significant accumulation of IP was detected
cellular levels of inositol phosphates IP1, IP2 and IP3 (α1A-AR [3]): no significant changes
translocation of β-arrestin-1 / β-arrestin-2 (α1A-AR [4]): did not cause visible β-arrestin rearrangement
